From publication PMC5603865, “Synthesis, In-Vitro Activity and Metabolic Properties of Quinocetone and Structurally Similar Compounds” (Iranian Journal of Pharmaceutical Research : IJPR, 2017)
Values after ≈ are worked out from the molar mass of the structure shown. Where two headings read alike, the source gives them in different places.

Key:
Aeromonas hydrophila = test: In-vitro antibacterial activity, MIC by broth dilution; format: cell-based; conditions: 24 h; for MIC: Aeromonas hydrophila, read-out: MIC values Aeromonas hydrophila
Protocol: (§1) All test compounds were dissolved in dimethyl sulfoxide (DMSO, Sigma, USA) and then diluted in Dulbecco’s modified Eagle’s medium (DMEM, Gibco, USA) at desired concentrations for cell proliferation analyses or diluted in nutrient broth medium for antimicrobial susceptibility testing respectively. The final concentration of DMSO in the DMEM culture medium was under 0.1% (v:v).
(§2) The preliminary antibacterial activities were obtained for selected compounds against various bacteria, namely: Staphyloccocus aureus ATCC25923 (Gram-positive bacteria), Clostridium perfringen CVCC52,8604 (anaerobes bacteria), Salmonella pullorum (Gram-negative bacteria), Escherichia coli ATCC25922 (Gram negative bacteria) and Aeromonas hydrophila (Gram-negative bacteria) were used in the study. Each strain was cultured in appropriate broth medium. Clostridium perfringen was incubated in an anaerobic chamber. The minimum inhibitory concentration (MIC) for each test compound was estimated using the broth dilution method. The MIC’s was determined for each strain/compound pairs that presented antimicrobial activity. The method was modified from Mohapatra›s methods ([14], [15]). Cell suspensions were prepared in 2 mL of liquid medium with concentrations of various tests of compounds in 15 mL culture tubes by inoculation with 100 μL of 10^6 cfu/mL from each stock. The cultures were incubated at 28 °C or 37 °C for 24 h. Tubes showing no visible turbidity represented the MIC, and subsequently, were inoculated on the right side of the 9cm sterile nutrient agar plates without various test compounds and incubated for 24 h (Clostridium perfringen was incubated in an anaerobic chamber.). The least concentration, at which no growth was observed, represented the minimum bactericidal concentration (MBC) ([16]).

[1] = test system: Escherichia coli ATCC25922; test: as above; format: cell-based; conditions: for MIC: Escherichia coli, read-out: MIC values Escherichia coli ATCC25922
Protocol: as §1, §2

Salmonella pullorum = test: as above; format: cell-based; conditions: 24 h; for MIC: Salmonella enterica, PULLORUM
Protocol: as §1, §2

[2] = test system: Staphyloccocus aureus ATCC25923; test: as above; format: cell-based; conditions: 24 h; for MIC: read-out: MIC values Staphyloccocus aureus ATCC25923
Protocol: as §1, §2

[3] = test system: Clostridium perfringen CVCC52,8604; test: In-vitro antibacterial activity, MIC by broth dilution (anaerobic chamber); format: cell-based; conditions: 24 h; for MIC: Clostridium
Protocol: as §1, §2

HepG2 cells = test: In-vitro cytotoxicity, MTT cell proliferation assay; format: cell-based, human; conditions: 24 h incubation, concentration reducing viable cells by 50%
Protocol: as §1
(§3) HepG2 and normal human Chang liver cells were obtained from the Institute of Biochemistry and Cell Biology, Shanghai Institutes for Biological Sciences, Chinese Academy of Sciences (Shanghai, China). HepG2 and normal human Chang liver cells were cultured at 37˚Cwith 5% CO2 in DMEM supplemented with 2% L-glutamine, 10% fetal bovine serum (Gibco, USA), 100 U/mL penicillin and 100 […] (Gibco, USA).
(§4) The methodology for evaluating the cytotoxicity inhibitory activity of various test compounds towards cell proliferation has been described previously ([11], [17]). Cell proliferation inhibitory analyses were carried out using the 3-(4,5-dimethylthiazole-2-yl)-2,5-diphenyl tetrazolium bromide (MTT, Sigma, USA) assay. Briefly, cancers HepG2 and normal human Chang liver cells were harvested and resuspended in fresh growth medium. A 100 μL cell suspension (5 × 10^4 cells/mL) was aliquoted into each well of a 96-well culture plate. After 12 h incubation, the medium was replaced with fresh medium containing various concentrations of test compounds. The cells were then incubated for another 24 h. At the end of exposure, 10 μL of MTT solution (5 mg/mL) was added, and the cells were incubated for 4 h at 37 °C. The cells were treated with 100 μL DMSO, and absorbance was recorded at 570 nm using a microplate ELISA reader (ELX800, Bio-Tek, USA). All experiments were performed at least thrice, and data were presented as the mean of sixplicate wells ± standard deviation (SD). Cell inhibition was calculated as follows:
(§5) (OD of control group − OD of experimental group) / (OD of control group − OD of blank group) ×100%. The IC50 value for a compound was calculated using SPSS.

[4] = test system: normal human Chang liver cells; test: as above; format: cell-based; conditions: 24 h incubation, concentration reducing viable cells by 50%
Protocol: as §1, §3, §4, §5

[5] = test system: Gram-positive and Gram-negative bacteria; test: Antibacterial activity class based on the MIC results; format: cell-based
Protocol: as §2
In this study, activity of quinoxaline-1, 4-dioxides and their deoxygenations was tested against selected Gram-negative bacteria (Escherichia coli, Salmonella pullorum and Aeromonas hydrophila), Gram-positive bacteria (Staphyloccocus aureus and Clostridium perfringen). The in-vitro antibacterial activity was based on the MIC results: Strong antibacterial activity, if MIC is less than 50 μg/mL; Moderate, if MIC is in between 50 and 250 μg/mL; No activity, if MIC is more than 500 μg/mL.

[6] = ATCC25922, broth dilution, 24 h
[7] = Homo sapiens, Chang liver, 24 h

Compound	MIC values Aeromonas hydrophila (Aeromonas hydrophila; broth dilution) [µg/mL]	MIC values Escherichia coli ATCC25922 ([1]; broth dilution, 24 h) [µg/mL]	MIC values Salmonella pullorum (Salmonella pullorum) [µg/mL]	MIC values Staphyloccocus aureus ATCC25923 ([2]; broth dilution) [µg/mL]	MIC values Clostridium perfringen [3] [µg/mL]	IC50 (HepG2 cells) [µM]	IC50 [4] [µM]	MIC (Aeromonas hydrophila; broth dilution) [µg/mL]	MIC [1, 6] [µg/mL]	MIC (Salmonella pullorum) [µg/mL]	MIC ([2]; broth dilution) [µg/mL]	MIC [3] [µg/mL]	IC50 (HepG2 cells; Homo sapiens, HepG2, 24 h) [µM]	IC50 [4, 7] [µM]	antibacterial activity against Gram-positive and Gram-negative bacteria [5]	MIC [2] [µg/mL]	MIC ([1]; ATCC25922, 24 h) [µg/mL]	MIC (Aeromonas hydrophila) [µg/mL]
2-(3-phenyl-2-propenyl) -3-methylquinoxaline [Compound 5a]	>500	>500	>500	>500	>500	451 ± 11.1	532 ± 7.66	–	–	–	–	–	–	–	–	–	–	–
CC(=O)c1c(C)[n+]([O-])c2ccccc2[n+]1[O-] [Compound 2, 2-acetyl-3-methylquinoxaline-1,4-dioxide]	–	–	–	–	–	–	–	17.4 (≈ 79.9 µM)	4.36 (≈ 20 µM)	17.4 (≈ 79.9 µM)	17.4 (≈ 79.9 µM)	8.72 (≈ 40 µM)	288 ± 9.74	263 ± 3.11	strong or moderate activity	–	–	–
Cc1c(C(=O)/C=C/c2cccc(O)c2)[n+]([O-])c2ccccc2[n+]1[O-] [Compound 3b]	–	–	–	–	–	30.5 ± 1.3	68 ± 2.9	206 (≈ 639 µM)	103 (≈ 320 µM)	25.8 (≈ 79.9 µM)	12.9 (≈ 40 µM)	51.5 (≈ 160 µM)	30	68	strong or moderate activity	–	–	–
Cc1c(C(=O)/C=C/c2ccccc2O)[n+]([O-])c2ccccc2[n+]1[O-] [Compound 3c]	–	–	–	–	–	102 ± 4.13	–	103 (≈ 320 µM)	103 (≈ 320 µM)	103 (≈ 320 µM)	–	25.8 (≈ 79.9 µM)	102	192 ± 10.3	strong or moderate activity	25.8 (≈ 79.9 µM)	–	–
Cc1c(C(=O)/C=C/c2cccc([N+](=O)[O-])c2)[n+]([O-])c2ccccc2[n+]1[O-] [Compound 3d]	–	–	–	–	–	–	–	449 (≈ 1280 µM)	> 500	56.2 (≈ 160 µM)	449 (≈ 1280 µM)	> 500	380 ± 10.6	411 ± 17.1	little or no activity	–	–	–
Cc1c(C(=O)/C=C/c2ccc([N+](=O)[O-])cc2)[n+]([O-])c2ccccc2[n+]1[O-] [Compound 3e]	–	–	–	–	–	–	–	112 (≈ 320 µM)	–	225 (≈ 639 µM)	–	449 (≈ 1280 µM)	449 ± 19.4	536 ± 22.9	little or no activity	449 (≈ 1280 µM)	449 (≈ 1280 µM)	–
COc1ccc(/C=C/C(=O)c2c(C)[n+]([O-])c3ccccc3[n+]2[O-])cc1 [Compound 3f]	–	–	–	–	–	99.7 ± 2.97	86.9 ± 6.3	> 500	> 500	> 500	13.4 (≈ 40 µM)	26.9 (≈ 79.9 µM)	99	87	little or no activity	–	–	–
Cc1c(C(=O)/C=C/c2ccc(Cl)cc2)[n+]([O-])c2ccccc2[n+]1[O-] [Compound 3g]	–	–	–	–	–	103 ± 4.08	–	> 500	> 500	> 500	27.2 (≈ 79.8 µM)	435 (≈ 1280 µM)	102	114 ± 4.59	little or no activity	–	–	–
Cc1c(C(=O)/C=C/c2ccc(N(C)C)cc2)[n+]([O-])c2ccccc2[n+]1[O-] [Compound 3h]	–	–	–	–	–	–	–	223 (≈ 639 µM)	–	> 500	–	447 (≈ 1280 µM)	395 ± 14.6	509 ± 14.8	little or no activity	447 (≈ 1280 µM)	447 (≈ 1280 µM)	–
CC(=O)c1nc2ccccc2nc1C [Compound 4, 2-acetyl-3-methylquinoxaline]	–	–	–	–	–	–	–	119 (≈ 639 µM)	> 500	476 (≈ 2560 µM)	> 500	> 500	572 ± 36.2	672 ± 23.2	little or no activity	–	–	–
Cc1nc2ccccc2nc1C(=O)/C=C/c1cccc(O)c1 [Compound 5b]	–	–	–	–	–	–	–	371 (≈ 1280 µM)	> 500	> 500	> 500	> 500	526 ± 20.9	463 ± 9.91	–	–	–	–
Cc1nc2ccccc2nc1C(=O)/C=C/c1ccccc1O [Compound 5c]	–	–	–	–	–	–	–	371 (≈ 1280 µM)	> 500	> 500	> 500	> 500	274 ± 11.6	361 ± 10.2	–	–	–	–
Cc1nc2ccccc2nc1C(=O)/C=C/c1cccc([N+](=O)[O-])c1 [Compound 5d]	–	–	–	–	–	–	–	> 500	> 500	> 500	> 500	> 500	461 ± 4.49	499 ± 8.75	–	–	–	–
Cc1nc2ccccc2nc1C(=O)/C=C/c1ccc([N+](=O)[O-])cc1 [Compound 5e]	–	–	–	–	–	–	–	> 500	> 500	> 500	> 500	> 500	606 ± 34.6	590.1 ± 2.22	–	–	–	–
COc1ccc(/C=C/C(=O)c2nc3ccccc3nc2C)cc1 [Compound 5f]	–	–	–	–	–	–	–	> 500	> 500	> 500	> 500	> 500	653 ± 32	531 ± 19.3	–	–	–	–
Cc1nc2ccccc2nc1C(=O)/C=C/c1ccc(Cl)cc1 [Compound 5g]	–	–	–	–	–	–	–	> 500	> 500	> 500	> 500	> 500	533 ± 24.8	689 ± 46.2	–	–	–	–
Cc1nc2ccccc2nc1C(=O)/C=C/c1ccc(N(C)C)cc1 [Compound 5h]	–	–	–	–	–	–	–	> 500	> 500	> 500	> 500	> 500	626 ± 25.4	567 ± 26.7	–	–	–	–
Cc1c(C(=O)/C=C/c2ccco2)[n+]([O-])c2ccccc2[n+]1[O-] [Compound 6, 3-methyl-2-(3-fura-2-propenoyl)-quinoxaline-1,4-dioxide]	–	–	–	–	–	–	–	–	–	189 (≈ 639 µM)	–	94.7 (≈ 320 µM)	240 ± 34.8	299 ± 6.72	strong or moderate activity	94.7 (≈ 320 µM)	94.7 (≈ 320 µM)	94.7 (≈ 320 µM)
Cc1nc2ccccc2nc1C(=O)/C=C/c1ccco1 [Compound 7, 3-methyl-2-(3-fura-2-propenoyl)-quinoxaline]	–	–	–	–	–	–	–	338 (≈ 1280 µM)	> 500	> 500	> 500	> 500	441 ± 12.3	469 ± 5.26	–	–	–	–
Cc1nc2ccccc2nc1C(=O)O [Compound 10, 3-methyl-quinoxaline-2-carboxylic acid]	–	–	–	–	–	–	–	481 (≈ 2560 µM)	> 500	> 500	> 500	> 500	2490 ± 133	2120 ± 90.1	–	–	–	–
